The conditions of data set [1]: resin.
For data set [2] the following is noted: disulfide bond; 44-membered ring; resin; 3 steps.
The mark [3] stands for this setting: crosslinker bond, 30-membered ring.
[4] abbreviates: disulfide bond, 20-membered ring.

Like-named read-outs stand apart in the source and are kept apart here.

As for H-ACREGFLRCLHRPTVCNG-H2, in data set [1] (crosslinker bond, 31-membered ring), the ring closure, conversion stood at 99%.

H-ACSWPARCLHQDLCA-NH2 gave a ring closure, conversion in data set [1] (setting [3]) of 99%.

The substance H-ACYNEFGCEDFYDICA-NH2 yielded a ring closure, conversion in data set [1] (setting [3]) of 99%.

With H-CRVPGDAHHADSLC-NH2, the ring closure, conversion in data set [1] (crosslinker bond, 49-membered ring) is 99%; in data set [1] (disulfide bond, 44-membered ring), 22%. In addition, the ring closure, crude yield in data set [2] is 22%.

For H-CYFQNCPRG-NH2, in data set [1] (setting [4]), the ring closure, conversion was determined as 95%.

With “H-KCNTATCATQRLANFLVHSSNFGPILPPTNVGSNTY-NH2”, the ring closure, conversion in data set [1] (setting [4]) came out at 99%.

On to H-VRCPGAAHHADSLC-NH2, for which the ring closure, conversion in data set [1] (disulfide bond, 38-membered ring) turned out to be 99%.

Take H-VRVPGCAHCADSLY-NH2: in data set [1] (crosslinker bond, 19-membered ring), the ring closure, conversion was 99%.

Values taken from US12473328.
